Test results as given in ChEMBL document CHEMBL1128155, “Synthesis and structure-activity relationships of 2-(R) and (S) pyrrolidine-modified analogs of the cholinergic channel activator, ABT-418” (Bioorg Med Chem Lett, 1995).
Several values for one entry are separate records, joined by “and”; a condition that tells them apart may be missing. Equal entries are not always repeated.

Experiment: Displacement of [3H](-)-cytisine from rat brain nicotinic acetylcholine receptors (nAChR)

Compound	Ki
Cc1cc([C@H]2C[C@H](CO)CN2C)on1	6040 nM
Cc1cc([C@H]2C[C@H](C)CN2C)on1	946 nM
Cc1cc([C@@H]2C[C@H](CO)CN2C)on1 (single isomer, unassigned)	8140 nM
Cc1cc([C@@H]2C[C@@H](C)CN2C)on1	19 nM
Cc1cc([C@@H]2C[C@@H](CO)CN2C)on1	6650 nM
Cc1cc([C@H]2CC[C@H](C)N2C)on1	71 nM and 166 nM
Cc1cc([C@H]2CCCN2C)on1	7.4 nM
Cc1cc([C@@H]2C[C@@H](CF)CN2C)on1	155 nM
Cc1cc([C@H]2C[C@@H](CO)CN2C)on1	10900 nM
Cc1cc([C@H]2C[C@H](CF)CN2C)on1	16900 nM
Cc1cc([C@@H]2C[C@H](CF)CN2C)on1	1680 nM
Cc1cc([C@@H]2CCCN2C)on1 [ABT-418]	3 nM
